Reference: the NIST ThermoML archive (doi:10.1021/acs.jced.8b01120)

Experiment: xn = mol fraction of the nth substance listed
Settings: 100 kPa, Liquid; for speed of sound: Single path-length method; for mass density: Vibrating tube method

CCCCN(CCCC)CCCC [tributylamine] + COC(C)=O
Settings	mass density, 293.15 K [kg/m3]	mass density, 298.15 K [kg/m3]	mass density, 303.15 K [kg/m3]	mass density, 308.15 K [kg/m3]	mass density, 313.15 K [kg/m3]	speed of sound, 293.15 K [m/s]	speed of sound, 298.15 K [m/s]	speed of sound, 303.15 K [m/s]	speed of sound, 308.15 K [m/s]	speed of sound, 313.15 K [m/s]
x1 = 0.0501	913.106	906.572	900.184	893.938	887.487	1184.6	1160.4	1140	1113.4	1094.9
x1 = 0.1009	893.96	887.924	881.943	875.744	869.547	1188.9	1165.2	1144.5	1118	1099.6
x1 = 0.2003	864.36	858.987	853.583	848.346	842.744	1197.3	1174.1	1153.7	1128.1	1109.7
x1 = 0.2941	843.967	838.976	833.982	828.97	823.819	1205.6	1182.6	1161	1137.7	1118.6
x1 = 0.4009	826.428	821.765	817.081	812.409	807.525	1213.9	1191.9	1171.2	1148.1	1129.6
x1 = 0.5004	813.696	809.242	804.881	800.355	795.747	1222.5	1200.4	1180.6	1158.4	1138.9
x1 = 0.6008	803.345	799.107	794.831	790.504	786.225	1230.4	1209.5	1190.4	1167.9	1149.1
x1 = 0.7008	794.987	790.893	786.764	782.571	778.432	1239	1218.5	1198.7	1177.6	1159
x1 = 0.8004	788.147	784.162	780.197	776.154	772.052	1247.6	1227	1207.9	1187.8	1168.5
x1 = 0.9003	782.234	778.353	774.459	770.516	766.597	1255.7	1236.1	1217	1197.3	1177.8
x1 = 1	777.01	773.283	769.55	765.81	762.06	1264.2	1245.2	1226.2	1207.4	1188.8
